Assay results: PubChem BioAssay AID1645866 (Buhrlage Lab, Dana-Farber Cancer Institute and Novartis …, 2021)
Activity calls are given as the source filed them.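 How the source made its calls: active means in confirmatory dose-response testing, peak deubiquitinase inhibition of 30% or more; inactive means the rest.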

Molecular target: Ubiquitin carboxyl-terminal hydrolase 28 (Homo sapiens) (UniProt Q96RU2)
Test: Ubiquitin-specific peptidase 28 DUB inhibitors, biochemical concentration-dependence assay, validation of primary screening hits (AID 1645866)
Details: purified USP28, ubiquitin-rhodamine fluorescence, 30 min

Sequence of Ubiquitin carboxyl-terminal hydrolase 28 (Homo sapiens) (Q96RU2 whole entry, looked up): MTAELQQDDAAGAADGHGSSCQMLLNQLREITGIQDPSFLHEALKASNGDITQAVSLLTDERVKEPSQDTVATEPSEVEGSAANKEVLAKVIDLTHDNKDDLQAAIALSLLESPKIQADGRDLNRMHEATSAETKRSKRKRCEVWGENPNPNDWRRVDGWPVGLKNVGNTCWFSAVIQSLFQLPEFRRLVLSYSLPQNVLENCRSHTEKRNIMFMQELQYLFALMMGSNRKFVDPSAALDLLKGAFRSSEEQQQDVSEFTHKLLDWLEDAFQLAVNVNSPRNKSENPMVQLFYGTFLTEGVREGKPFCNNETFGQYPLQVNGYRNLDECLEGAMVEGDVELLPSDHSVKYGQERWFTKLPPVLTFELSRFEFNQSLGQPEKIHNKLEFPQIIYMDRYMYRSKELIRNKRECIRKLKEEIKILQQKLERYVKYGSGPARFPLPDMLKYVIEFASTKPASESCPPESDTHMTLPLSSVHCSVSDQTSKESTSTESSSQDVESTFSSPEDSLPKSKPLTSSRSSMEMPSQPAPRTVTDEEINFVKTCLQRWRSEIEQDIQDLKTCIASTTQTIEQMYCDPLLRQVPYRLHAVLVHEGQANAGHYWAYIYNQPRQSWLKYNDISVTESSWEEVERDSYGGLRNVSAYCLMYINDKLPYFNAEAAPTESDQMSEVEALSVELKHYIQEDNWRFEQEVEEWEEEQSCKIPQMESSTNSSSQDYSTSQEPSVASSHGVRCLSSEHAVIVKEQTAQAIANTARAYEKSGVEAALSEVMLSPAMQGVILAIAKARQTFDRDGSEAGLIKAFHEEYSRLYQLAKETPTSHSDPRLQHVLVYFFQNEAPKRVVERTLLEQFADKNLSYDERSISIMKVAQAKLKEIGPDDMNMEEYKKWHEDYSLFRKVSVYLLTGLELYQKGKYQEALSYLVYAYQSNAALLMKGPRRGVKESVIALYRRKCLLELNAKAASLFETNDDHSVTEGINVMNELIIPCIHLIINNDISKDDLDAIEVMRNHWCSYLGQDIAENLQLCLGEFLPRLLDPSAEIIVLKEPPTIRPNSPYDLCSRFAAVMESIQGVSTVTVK

SMILES	IC50
Cc1cccc(NC(=O)Cn2c(N3CCOCC3)nc3cc(C)n(C)c3c2=O)c1	16.3 µM
COc1ccccc1-c1nc2c3c(C)c(C)n(-c4ccc(Br)cn4)c3ncn2n1	2.07 µM
Cc1cccc(C(=O)Nc2cccc(SC(C(=O)Nc3ccc(Cl)c(C(=O)O)c3)c3ccccc3)c2)c1 (configuration not stated)	15.3 µM
Cc1ccc(C(=O)Nc2nc3n(n2)C(c2ccccc2)CC(=O)N3)cc1 (configuration not stated)	19.4 µM
Cc1nc(SCC(=O)Nc2cc(Cl)ccc2C)c2oc3ccccc3c2n1	2.06 µM
Cc1ccc(-c2cnc(C3CC3)o2)cc1S(=O)(=O)Nc1ccc(F)c(Cl)c1	32.5 µM
COc1ccccc1-n1nnc(C(=O)Nc2ccc(Oc3ccccc3)cc2)c1C	6.16 µM
CCCCN1CC(C(=O)Nc2ccc(C(=O)Nc3ccc(F)c(Cl)c3)cc2)CC1=O (configuration not stated)	34.2 µM
c1cncc(-c2nc(Nc3ccc4c(c3)OCCO4)c3ccccc3n2)c1	34.9 µM
O=C(COC(=O)c1ccc(CN2CCCC2=O)cc1)c1ccc2c(c1)OCCO2	0.113 µM
Cc1cccc(C(=O)Nc2ccccc2Sc2nc3c(c(=O)n(C)c(=O)n3C)n2C)c1	42.6 µM
Cc1ccc(CNC(=O)c2cccc(N3C(=O)N4CCc5c([nH]c6ccccc56)[C@@]4(C)C3=O)c2)cc1	44 µM
COc1ccc(C(=O)Nc2nc3n(n2)C(c2ccccc2)CC(=O)N3)cc1 (configuration not stated)	12.5 µM
COc1ccc(/C=C/C(=O)Nc2ccc3c(c2)OCCO3)cc1Br	1.34 µM
Cc1ccc(-n2cc3c(N4CCCC(C(=O)NCC5CCCCC5)C4)ncnc3n2)cc1 (configuration not stated)	> 50 µM (inactive)
Cc1cc(Cl)ccc1NC(=O)c1cc(-c2cccnc2)n[nH]1	> 50 µM (inactive)
CO[C@H]1/C=C/OC2(C)Oc3c(C)c(O)c4c(c3C2=O)C2(C=C(NC(=O)/C(C)=C\C=C\[C@H](C)[C@H](O)[C@@H](C)[C@@H](O)[C@@H](C)[C@H](OC(C)=O)C1C)C4=O)OCC(=O)O2 (some centres not stated)	> 50 µM (inactive)
Oc1ccc(Br)cc1CNc1ccc(F)cc1	18.3 µM
O=C(CN1C(=O)C2CCCC2=Nc2ccccc21)Nc1cc(F)ccc1F (configuration not stated)	13.5 µM

SMILES	IC50
CCc1c(Cl)c(O)c(Cl)c(O)c1C(=O)O[C@H]1C(C)O[C@@H](OC/C2=C\C=C\CC(O)/C(C)=C/C(CC)C(O[C@@H]3OC(C)(C)[C@H](O)C(OC(=O)C(C)C)[C@@H]3O)/C(C)=C/C(C)=C/CC(C(C)O)OC2=O)[C@@H](OC)C1O (some centres not stated)	> 50 µM (inactive)
CN1CCC(N(C)S(=O)(=O)c2ccc(NC(=O)c3cccc(OCc4ccccc4)c3)cc2)CC1	17.2 µM
Cc1cc(O)c2c3c(c(O)c4c(c13)O[C@@H](C)C4(C)C)C(=O)C2=O	23.5 µM
CCCC1Cc2c(sc3nc(SCC)nc(N)c23)CO1 (configuration not stated)	16.4 µM
Cc1ccc(NC(=O)c2ccn(COc3ccc(F)cc3)n2)nc1	33.3 µM
COC(=O)c1sc2ccccc2c1NC(=O)c1ccc(Br)s1	15.8 µM
O=C1C[C@@H]2O[C@H](CNC(=O)[C@@H]3CN(CCN3C(=O)C3CCOCC3)C(=O)[C@@H]3C[C@@H](CN3Cc3ccc(F)c(F)c3)N1)[C@@H](O)[C@H]2O	> 50 µM (inactive)
Cc1ccc(C)c(-c2cc3c(=O)n(Cc4noc(CN5CCCCC5)n4)ccn3n2)c1	4.49 µM
O=C(c1ccc2cc[nH]c2c1)N1CCC(Nc2cccnc2)C1 (configuration not stated)	> 50 µM (inactive)
COc1cc2c(c(OCC(=O)Nc3ccc4c(c3)OCCO4)c1)C(=O)O[C@@H](C)CCCC(=O)CCCCC2	20.7 µM
Clc1ccc(C[n+]2cc(-c3ccc(Cl)cc3)n3c2CCC3)cc1	13.6 µM
CCN(C(=O)c1cc2c(s1)-c1ccccc1OC2)c1ccccc1F	19.6 µM
CC(C)NC(=O)Cn1ccn2nc(-c3ccc(Cl)cc3)cc2c1=O	8.61 µM
CCOc1ccc2nc(NC(=O)C3CCN(S(=O)(=O)c4ccc5c(c4)CC(C)N5C(C)=O)CC3)sc2c1 (configuration not stated)	> 50 µM (inactive)
Cc1ccc(C2c3c(-c4ccccc4O)n[nH]c3C(=O)N2Cc2ccco2)cc1 (configuration not stated)	20 µM
Cc1ccccc1C(=O)Nc1ccc(Cc2ccc(NC(=O)c3ccccc3C)c(O)c2)cc1O	43.7 µM
COc1cccc(-c2nc3cnccn3c2NCc2ccc3c(c2)OCO3)c1	> 50 µM (inactive)
CCCCOc1ccc(C(=O)Nc2ccc3c(c2)CCC(=O)N3CCC)cc1	1.01 µM
